Oligonucleotides are written 5' to 3', each unit as a sugar letter and its base; * is a phosphorothioate linkage, no mark a phosphodiester; rarer units and linkages stand in square brackets, end groups in braces. Plain capitals give the bases only. d = 2'-deoxy (DNA); {P} = phosphate
Key:
[1] = system: E2F1, p53, p53 phosphorylated at serine 15; assay: Western blot of E2F1, p53 and phospho-p53 in neonatal fibroblasts; format: cell-based, human
Method: Cells were plated at a density of 180,000 cells/ml in RPMI 1640 medium supplemented with 3% FBS. Cells were treated with 40 μM of either of the oligonucleotides for 72 hours. Cells were then collected, washed and fixed for 30 minutes in 4% paraformaldehyde and then permeabilized with 0.1% Triton X-100 for 2 minutes. The TUNEL assay was carried out with components and instructions of the In Situ Cell Death Detection Kit using fluorescein-labeled dUTP from Boehringer Mannheim. TUNEL-positive cells were detected by FACS analysis and confocal microscopy. Cellular Uptake of Oligonucleotides For confocal analysis, Jurkat cells were plated on Permanox chamber slides (Lab-Tek, Naperville, Ill.) and treated for 4 hours with fluorescein phosphoramidite (FAM)-labeled oligonucleotides (Research Genetics, Inc., Huntsville, Ala.). Adherent cells were fixed in 4% paraformaldehyde in PBS, stained with propidium iodide (PI) to identify nuclei, mounted with Slowfade reagent (Molecular Probes, Eugene, Oreg.), covered with a coverslip and stored at 4° C. in the dark. Uptake of the oligonucleotides was assessed in 5–10 μm sections with a Carl Zeiss LSM 510 confocal laser microscope. Computer images assign green to the FAM-oligonucleotides, red to PI, and yellow to co-localization of the signals. FACS analysis was performed on Jurkat cells identically treated with the FAM-oligonucleotides for 4 hours, then fixed in 0.5 ml of 4% paraformaldehyde overnight at 4° C. Fluorescence was measured on the FL-1 channel. Western Blot Analysis and Antibodies Western blot analysis was performed as previously described [Eller, M. S., et al., (1996), Proc Natl Acad Sci USA 93, 1087–1092]. Antibody Ab-6 (DO-1 clone, Oncogene Research Products, Cambridge, Mass.) detected p53; antibody KH95 (Santa Cruz Biotechnology, Inc., Santa Cruz, Calif.) detected E2F1; antibody Ab-4 (Oncogene Research products) detected p73. Phospho-p53 (serine 15) was detected using the #9284 polyclonal antibody and phospho-p95/Nbs1 (serine 343) was detected by a phospho-p95/Nbs1-specific polyclonal antibody, both antibodies from Cell Signaling Technology (Beverly, Mass.). p95/Nbs1 antibody (#NB-100-143, Novus Biologicals, Littleton, Colo.) and an actin antibody (I-19, Santa Cruz Biotechnology, Santa Cruz, Calif.) were also used. Modification of p95/Nbs1 Jurkat and SCC12F cells were cultured and treated with the oligonucleotides as described above. After the indicated times, total protein was collected and analyzed by 8% PAGE and western blot using a polyclonal antibody to p95/Nbs1 (#NB-100-143, Novus Biologicals, Littleton, Colo.). Immunoprecipitation and treatment with a serine/threonine phosphatase was performed as described by Lim et al. [Lim, D. S. et al., Nature 404:613–617, 2000]. Transient Transfection and Expression of TRF2^DN The Ad TRF2^DN expression vector was the kind gift of Dr. Titia deLange (Rockefeller University). The control vector, pCMV LUC was the gift of Dr. M. Hedayati, Johns Hopkins University. Cells were plated at a density of 3.5×10^3 cells/cm^2. One day later, the cultures were transfected with 1 μg plasmid DNA/35 mm culture dish, using the Fugene 6 Transfection Reagent (Roche Molecular Biochemicals, Indianapolis, Ind.), following the protocol supplied by the manufacturer. Cells were collected at the indicated times after transfection and p95/Nbs1 was examined by western blot as described. Telomere Length Normal human fibroblasts were cultured for 5 days in the presence of either diluent or 40 μM 11mer-1, -2 or -3. The cells were then collected and the genomic DNA isolated using the DNeasy Tissue Kit (Qiagen, Valencia, Calif.). Telomere length was determined essentially as described by van Steensel and de Lange (van Steensel, B. and T. de Lange. 1997, Nature 385: 740–743) using the Telo TAGGG Telomere Length Assay from Roche Molecular Biochemicals (Indianapolis, Ind.) and the protocol supplied by the manufacturer. […]

[2] = system: caspase-3; assay: Caspase-3 activity in Jurkat cells; format: cell-based, human; settings: 40 μM
Method: Duplicate cultures of Jurkat cells were cultured and treated with oligonucleotides as described above. At 48, 72 and 96 hours of treatment, cells were collected by centrifugation, washed and then the pellet lysed by repeated cycles of freeze-thawing. The lysate was then clarified by centrifugation and the supernatant used for protein analysis and Caspase-3 activity assay using the components and instructions of the Colorimetric CaspACE Assay System from Promega (Madison, Wis.). The assay uses the substrate Ac-DEVD-pNA and calorimetrically measures release of free pNA. Caspase activity is expressed as pmol of pNA produced/hour/μg protein.
Apoptosis was also detected by the DNA end-labeling TUNEL assay. Jurkat cells were treated with 40 μM oligonucleotides for 72 hours. Cells were then collected and the TUNEL assay was carried out. […] The activation of caspase-3, another marker of apoptosis, was also examined. Duplicate cultures of Jurkat cells were cultured and treated with oligonucleotides as described above for 48, 72 and 96 hours and caspase-3 activity was measured. The activity of caspase-3 was 50% higher after 48 hours of treatment with the telomere overhang homolog, compared to controls, and 3–4 fold higher in these cells at 72 and 96 hours (FIG. 27). Thus, the oligonucleotide homologous to the telomere 3′ overhang specifically induces an S phase arrest and apoptosis in these cells.

[3] = system: T cell proliferation; assay: Allogenic mixed lymphocyte reaction with keratinocyte culture medium; format: cell-based, human; settings: >10 kD components of culture medium from 72 hour sample
Method: The immunomodulatory effect of pTpT was tested in vitro using human keratinocytes. Duplicate cultures of primary human keratinocytes were treated with pTpT, diluent or UVB irradiation (200 J/m^2) or sham irradiation. Cells were collected at various times after treatment and analyzed for IL-10 protein by ELISA and for IL-10 mRNA by RT-PCR. An increase in IL-10 mRNA was detected after 6 hours in irradiated cells and after 48 hours in pTpT treated cells. An increase in IL-10 protein of 18 pg/ml was detected 24 hours after irradiation and 15±2 pg/ml 72 hours after treatment with pTpT. […] In the allogenic MLR, T cell activation is measured as lymphocyte proliferation, measured by ^3H-thymidine incorporation. IL-10 activity of culture medium from the 72 hour pTpT sample was measured by addition of the >10 kD components (containing the 18 kD IL-10 protein). […] Thus, like UVB irradiation, pTpT induces IL-10 in human keratinocytes which is likely to cooperate with TNFα to inhibit contact hypersensitivity in pTpT treated skin.

[4] = system: Human cervical carcinoma cells (HeLa cells); assay: Cell growth of HeLa cells; format: cell-based; settings: 100 μM; 1, 4 and 6 days after dosage
Method: Human cervical carcinoma cells (HeLa cells) were maintained in DME+10% calf serum and dosed with either water (diluent) or 100 μM T2. Cells were collected 1, 4 and 6 days after dosage and counted by Coulter™ counter.

pGTTAGGGTTAG (DNA {P}-dGdTdTdAdGdGdGdTdTdAdG) [SEQ ID NO: 5]
E2F1 increase peaked after [1]: 12 to 24 h
increase in E2F1 seen as early as [1]: 4 h
phosphorylated p53 (serine 15) first detected at [1]: 4 h
increase in E2F1 compared to diluent or 11mer-2 treated controls ([1]; 40 μM, 24 hours, densitometry): 170–250%
increase in p53 compared to diluent or 11mer-2 treated controls ([1]; 40 μM, 48 hours): 60–300%
increase in p53 compared to diluent or 11mer-2 treated controls ([1]; 40 μM, 72 hours): 240–380%
p53 protein phosphorylated at serine 15 ([1]; sustained through at least 48 hours): striking and selective increase
caspase-3 activity higher compared to controls ([2]; 72 and 96 hours): 3–4 fold
caspase-3 activity higher compared to controls ([2]; 48 hours): 50%

thymidine dinucleotide [pTpT]
reduction in T cell proliferation [3]: 80±5%
cell growth rate [4]: marked decreases in cell growth rate
